# Data taken from patent US10961238B2, “Modulators of hedgehog (Hh) signaling pathway” (E-THERAPEUTICS PLC, priority 2016, dated 2021).
# System: C3H10T1/2 cells
# Test: C3H assay: differentiation of C3H10T1/2 cells by mSHH, measurement of alkaline phosphatase
# Format: cell-based, mouse
# Settings: C3H10T1/2 cells stimulated with mSHH for 72 hours; alkaline phosphatase activity; read-out: IC50 Ranges
row,IC50,SMILES
1,10 to 100 nM,"CC[C@@H](C)OC(=O)N1CC(S(=O)(=O)N2CCC(c3coc4cccnc34)CC2)C1 [Compound 371, [(2R)-butan-2-yl]3-(4-furo[3,2-b]pyridin-3-ylpiperidin-1-yl)sulfonylaze-tidine-1-carboxylate]"
2,10 to 100 nM,"CC1(C)COCN1C(=O)N1CC(S(=O)(=O)N2CCC(c3coc4cccnc34)CC2)C1 [Compound 372, (4,4-dimethyl-1,3-oxazolidin-3-yl)-[3-(4-furo[3,2-b]pyridin-3-ylpiperidin-1-yl)sulfonylaze-tidin-1-yl]methanone]"

# Same assay, conditions: Mus musculus, C3H 10T1/2; C3H10T1/2 cells stimulated with mSHH for 72 hours; alkaline phosphatase activity; read-out: IC50 Ranges
row,IC50,SMILES
1,10 to 100 nM,"O=C(Nc1ccc(Cl)cc1Cl)N1CC(S(=O)(=O)N2CCC(c3coc4cccnc34)CC2)C1 [Compound 359, N-(2,4-dichlorophenyl)-3-(4-furo[3,2-b]pyridin-3-ylpiperidin-1-yl)sulfonylaze-tidine-1-carboxamide]"
2,10 to 100 nM,"Cc1c(F)cccc1NC(=O)N1CC(S(=O)(=O)N2CCC(c3coc4cccnc34)CC2)C1 [Compound 360, N-(3-fluoro-2-methylphenyl)-3-(4-furo[3,2-b]pyridin-3-ylpiperidin-1-yl)sulfonylaze-tidine-1-carboxamide]"
3,10 to 100 nM,"CC(C)(C)NC(=O)[C@H]1C[C@@H](S(=O)(=O)N2CCC(c3coc4cccnc34)CC2)C1 [Compound 362, cis-N-tert-butyl-3-(4-furo[3,2-b]pyridin-3-ylpiperidin-1-yl) sulfonylcyclobutane-1-carboxamide]"
4,10 to 100 nM,"Cc1c(F)cccc1NC(=O)N1CC(S(=O)(=O)N2CCC(c3c[nH]c4ncccc34)CC2)C1 [Compound 363, N-(3-fluoro-2-methylphenyl)-3-[4-(1H-pyrrolo[2,3-b]pyridin-3-yl)piperidin-1-yl]sulfonylaze-tidine-1-carboxamide]"
5,1000 to 10000 nM,"Cc1ccc(F)cc1NC(=O)N1CC(S(=O)(=O)N2CCC(c3ccc(F)cc3)CC2)C1 [Compound 367, N-(5-fluoro-2-methylphenyl)-3-[4-(4-fluorophenyl)piperidin-1-yl]sulfonylaze-tidine-1-carboxamide]"
6,1000 to 10000 nM,"Cc1ccc2c(C3CCN(S(=O)(=O)C4CN(C(=O)Nc5cc(F)ccc5C)C4)CC3)c[nH]c2n1 [Compound 368, N-(5-fluoro-2-methylphenyl)-3-[4-(6-methyl-1H-pyrrolo[2,3-b]pyridin-3-yl)piperidin-1-yl]sulfonylaze-tidine-1-carboxamide]"
7,100 to 1000 nM,"Cc1ccccc1NC(=O)N1CC(S(=O)(=O)N2CCC(c3coc4cccnc34)CC2)C1 [Compound 369, 3-(4-furo[3,2-b]pyridin-3-ylpiperidin-1-yl)sulfonyl-N-(2-methylphenyl) azetidine-1-carboxamide]"
8,10 to 100 nM,"CC(C)[C@@H](CO)NC(=O)N1CC(S(=O)(=O)N2CCC(c3coc4cccnc34)CC2)C1 [Compound 373, 3-(4-furo[3,2-b]pyridin-3-ylpiperidin-1-yl)sulfonyl-N-[(2S)-1-hydroxy-3-methylbutan-2-yl]azetidine-1-carboxamide]"
9,100 to 1000 nM,"CC(C)(C)C(=O)CN1CC(S(=O)(=O)N2CCC(c3ccc(F)cc3)CC2)C1 [Compound 375, 1-[3-[4-(4-fluorophenyl)piperidin-1-yl]sulfonylaze-tidin-1-yl]-3,3-dimethylbutan-2-one]"
10,100 to 1000 nM,"CC(C)(C)C(=O)CN1CC(S(=O)(=O)N2CCC(c3ccc(C#N)cc3)CC2)C1 [Compound 378, 4-[1-[1-(3,3-dimethyl-2-oxobutyl)azetidin-3-yl]sulfonylpiperidin-4-yl]benzonitrile]"
11,< 10 nM,"Cc1ccc2c(C3CCN(S(=O)(=O)C4CN(C(=O)OC5CCOCC5)C4)CC3)c[nH]c2n1 [Compound 380, oxan-4-yl 3-[4-(6-methyl-1H-pyrrolo[2,3-b]pyridin-3-yl)piperidin-1-yl]sulfonylaze-tidine-1-carboxylate]"
12,10 to 100 nM,"Cc1cccc(C)c1NC(=O)N1CC(S(=O)(=O)N2CCC(c3coc4cccnc34)CC2)C1 [Compound 382, N-(2,6-dimethylphenyl)-3-(4-furo[3,2-b]pyridin-3-ylpiperidin-1-yl)sulfonylaze-tidine-1-carboxamide]"
13,10 to 100 nM,"O=C(Nc1cc(F)ccc1Cl)N1CC(S(=O)(=O)N2CCC(c3coc4cccnc34)CC2)C1 [Compound 384, N-(2-chloro-5-fluorophenyl)-3-(4-furo[3,2-b]pyridin-3-ylpiperidin-1-yl)sulfonylaze-tidine-1-carboxamide]"
14,10 to 100 nM,"Cc1cccc(F)c1NC(=O)N1CC(S(=O)(=O)N2CCC(c3c[nH]c4ncccc34)CC2)C1 [Compound 387, N-(2-fluoro-6-methylphenyl)-3-[4-(1H-pyrrolo[2,3-b]pyridin-3-yl)piperidin-1-yl]sulfonylaze-tidine-1-carboxamide]"
15,10 to 100 nM,"O=C(Nc1cccc(F)c1)N1CC(S(=O)(=O)N2CCC(c3c[nH]c4ncccc34)CC2)C1 [Compound 389, N-(3-fluorophenyl)-3-[4-(1H-pyrrolo[2,3-b]pyridin-3-yl)piperidin-1-yl]sulfonylaze-tidine-1-carboxamide]"
16,10 to 100 nM,"O=C(Nc1c(F)cccc1F)N1CC(S(=O)(=O)N2CCC(c3c[nH]c4ncccc34)CC2)C1 [Compound 390, N-(2,6-difluorophenyl)-3-[4-(1H-pyrrolo[2,3-b]pyridin-3-yl)piperidin-1-yl]sulfonylaze-tidine-1-carboxamide]"
17,10 to 100 nM,"Cc1cc(F)ccc1NC(=O)N1CC(S(=O)(=O)N2CCC(c3coc4cccnc34)CC2)C1 [Compound 392, N-(4-fluoro-2-methylphenyl)-3-(4-furo[3,2-b]pyridin-3-ylpiperidin-1-yl)sulfonylaze-tidine-1-carboxamide]"

# More lines, now with the values behind:
row,SMILES,IC50
1,"O=C(NC1(C(F)(F)F)CC1)[C@H]1C[C@@H](S(=O)(=O)N2CCC(c3coc4cccnc34)CC2)C1 [Compound 361, cis-3-(4-furo[3,2-b]pyridin-3-ylpiperidin-1-yl)sulfonyl-N-[1-(trifluoromethyl)cyclopropyl] cyclobutane-1-carboxamide]",10 to 100 nM
2,"Cc1ccccc1NC(=O)N1CC(S(=O)(=O)N2CCC(c3c[nH]c4ncccc34)CC2)C1 [Compound 364, N-(2-methylphenyl)-3-[4-(1H-pyrrolo[2,3-b]pyridin-3-yl)piperidin-1-yl]sulfonylaze-tidine-1-carboxamide]",10 to 100 nM
3,"Cc1ccc(F)cc1NC(=O)N1CC(S(=O)(=O)N2CCC(c3coc4cccnc34)CC2)C1 [Compound 365, N-(5-fluoro-2-methylphenyl)-3-(4-furo[3,2-b]pyridin-3-ylpiperidin-1-yl)sulfonylaze-tidine-1-carboxamide]",10 to 100 nM
4,"Cc1ccc(F)cc1NC(=O)N1CC(S(=O)(=O)N2CCC(c3ccc(C#N)cc3)CC2)C1 [Compound 366, 3-[4-(4-cyanophenyl)piperidin-1-yl]sulfonyl-N-(5-fluoro-2-methylphenyl) azetidine-1-carboxamide]",100 to 1000 nM
5,"CC(C)(C)NC(=O)N1CC(S(=O)(=O)N2CCC(c3coc4cccnc34)CC2)C1 [Compound 370, N-tert-butyl-3-(4-furo[3,2-b]pyridin-3-ylpiperidin-1-yl)sulfonylaze-tidine-1-carboxamide]",10 to 100 nM
6,"C[C@@H]1CN(C(=O)N2CC(S(=O)(=O)N3CCC(c4coc5cccnc45)CC3)C2)C[C@H](C)O1 [Compound 374, [(2R,6S)-2,6-dimethylmorpholin-4-yl]-[3-(4-furo[3,2-b]pyridin-3-ylpiperidin-1-yl)sulfonylazetidin-1-yl]methanone]",< 10 nM
7,"CC(C)(C)C(=O)CN1CC(S(=O)(=O)N2CCC(c3coc4cccnc34)CC2)C1 [Compound 376, 1-[3-(4-furo[3,2-b]pyridin-3-ylpiperidin-1-yl)sulfonylazetidin-1-yl]-3,3-dimethylbutan-2-one]",10 to 100 nM
8,"O=C(CC1CCOCC1)N1CC(S(=O)(=O)N2CCC(c3coc4cccnc34)CC2)C1 [Compound 377, 1-[3-[(4-furo[3,2-b]pyridin-3-yl-1-piperidyl)sulfonyl]azetidin-1-yl]-2-tetrahydropyran-4-yl-ethanone]",10 to 100 nM
9,"O=C(CC(O)(C(F)(F)F)C(F)(F)F)N1CC(S(=O)(=O)N2CCC(c3c[nH]c4cccnc34)CC2)C1 [Compound 379, 4,4,4-trifluoro-3-hydroxy-1-[3-[4-(1H-pyrrolo[3,2-b]pyridin-3-yl)piperidin-1-yl]sulfonylaze-tidin-1-yl]-3-(trifluoromethyl) butan-1-one]",10 to 100 nM
10,"Cc1ccc2c(C3CCN(S(=O)(=O)C4CN(C(=O)N5C[C@@H](C)O[C@@H](C)C5)C4)CC3)c[nH]c2n1 [Compound 381, [cis-2,6-dimethylmorpholin-4-yl]-[3-[4-(6-methyl-1H-pyrrolo[2,3-b]pyridin-3-yl)piperidin-1-yl]sulfonylazetidin-1-yl]methanone]",< 10 nM
11,"O=C(Nc1cccc(F)c1)N1CC(S(=O)(=O)N2CCC(c3coc4cccnc34)CC2)C1 [Compound 383, N-(3-fluorophenyl)-3-(4-furo[3,2-b]pyridin-3-ylpiperidin-1-yl)sulfonylaze-tidine-1-carboxamide]",10 to 100 nM
12,"O=C(Nc1cc(F)ccc1Cl)N1CC(S(=O)(=O)N2CCC(c3c[nH]c4ncccc34)CC2)C1 [Compound 385, N-(2-chloro-5-fluorophenyl)-3-[4-(1H-pyrrolo[2,3-b]pyridin-3-yl)piperidin-1-yl]sulfonylaze-tidine-1-carboxamide]",10 to 100 nM
13,"Cc1noc(C)c1CC(=O)N1CC(S(=O)(=O)N2CCC(c3ccc(Cl)cc3)CC2)C1 [Compound 386, 1-[3-[4-(4-chlorophenyl)piperidin-1-yl]sulfonylaze-tidin-1-yl]-2-(3,5-dimethyl-1,2-oxazol-4-yl)ethanone]",10 to 100 nM
14,"Cc1cccc(C)c1NC(=O)N1CC(S(=O)(=O)N2CCC(c3c[nH]c4ncccc34)CC2)C1 [Compound 391, N-(2,6-dimethylphenyl)-3-[4-(1H-pyrrolo[2,3-b]pyridin-3-yl)piperidin-1-yl]sulfonylaze-tidine-1-carboxamide]",10 to 100 nM
15,"C[C@@H]1CN(C(=O)N2CC(S(=O)(=O)N3CCC(c4ccc(Cl)cc4)CC3)C2)C[C@H](C)O1 [Compound 393, [3-[4-(4-chlorophenyl)piperidin-1-yl]sulfonylaze-tidin-1-yl]-[(2R,6S)-2,6-dimethylmorpholin-4-yl]methanone]",10 to 100 nM
